Laboratory results published in US20030109444A1, “Bone anti-resorptive compounds” (priority 2001, published 2003).
“Also recorded” adds a separate entry of the source.

Test system: osteoclast precursors (bone marrow macrophages)
Experiment: Osteoclast differentiation of bone marrow macrophage cultures monitored by TRAP activity
Type: cell-based
Details: cell cultures of osteoclast precursors (mouse BMMs) with M-CSF, increasing concentrations of peptide, FIG. 1
Description: The effect of a partial AA″ loop polypeptide of RANKL on TRAP activity. Wild type C3H/HENJ mice were purchased from Harlan Industries (Indianapolis, Ind.). In order to establish a cell culture of osteoclast precursors, bone marrow macrophages (BMMs) were isolated from whole bone marrow of four to six week old mice and incubated in tissue culture dishes at 37° C. in 5% CO2. After 24 hours in culture, the non-adherent cells were collected and layered on a Ficoll Hypaque gradient and the cells at the gradient interface were collected. Cells were replated at 65,000/cm^2 in α-minimal essential medium, supplemented with 10% heat inactivated fetal bovine serum, at 37° C. in 5% CO2 in the presence of recombinant mouse M-CSF (10 ng.ml). The cell cultures were then treated either with the increasing concentrations of polypeptide of SEQ ID NO 1 (subset of AA″ loop) or with a negative control scrambled peptide having the same molecular weight as the test compound. […] This phosphatase is an osteoclast specific enzyme and its activity corresponds with osteoclast differentiation. TRAP activity is measured by quantitating its ability to cleave a substrate in a color-producing reaction.

With PSGSHKVTLSS [SEQ ID NO 1] the TRAP activity was “decreases TRAP activity” and the “inhibition of RANKL-induced osteoclast differentiation as monitored by TRAP” value (listed as test compound) was “competitively inhibits the ability of RANKL to induce osteoclast differentiation; also recorded: dose-dependent”.
